In general, IC50 refers to the concentration at which inhibition is half-maximal.

The source of these data is PMC7018972, “Novel and selective inactivators of Triosephosphate isomerase with anti-trematode activity” (Scientific Reports, 2020).

Chain of Fasciola hepatica TIM (FhTIM) (S4UI50 entry or part of it): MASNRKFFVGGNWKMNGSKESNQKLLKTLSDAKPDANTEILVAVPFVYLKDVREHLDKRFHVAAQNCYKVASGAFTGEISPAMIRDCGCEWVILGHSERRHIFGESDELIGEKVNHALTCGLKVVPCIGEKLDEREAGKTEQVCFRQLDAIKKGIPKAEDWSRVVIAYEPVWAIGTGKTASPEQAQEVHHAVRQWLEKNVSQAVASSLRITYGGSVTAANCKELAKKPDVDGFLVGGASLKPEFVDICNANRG

One assay has as its target Fasciola hepatica TIM (FhTIM) (Fasciola hepatica, UniProt S4UI50). The assay is described as follows: Inhibition of recombinant FhTIM, coupled enzyme assay. The format is biochemical.
Details: not given
On the procedure:
Expression and purification of proteins: FhTIM, RabbitTIM and HsTIM were expressed in Escherichia coli and purified as described in the literature[31],[37]. […] Before use, extensive dialysis against 100 mM triethanolamine/10 mM EDTA (pH 7.4) was performed. […] Enzymatic activity was determined following the conversion of glyceraldehydes-3-phosphate into dihydroxyacetone phosphate in a coupled enzyme assay. The decrease in absorbance at 340 nm was followed in a multiplate reader VarioskanTM Flash Multimode Reader (Thermo ScientificTM, Waltham, MA, USA) at 38 °C. The reaction mixture (1 mL, pH 7.4) contained 100 mM triethanolamine, 10 mM EDTA, 0.2 mM NADH, 1 mM glyceraldehydes-3-phosphate and 0.9 units of α-glycerol phosphate dehydrogenase. The reaction was initiated by the addition of 5 ng/mL of the TIM of interest. For the inhibition studies, TIM was incubated at a concentration of 5 mg/mL in a buffer containing 100 mM triethanolamine, 10 mM EDTA, pH 7.4 and 10% of DMSO at 37 °C for 1 h. The mixture also contained the compounds, dissolved in DMSO, at the indicated concentrations. After 1 h, 10 µL were withdrawn and added to a final volume of 100 µL of the reaction mixture for the activity assay. The inhibition assay was performed in a 96-well microplate. […] The experiments were performed in triplicate in two independent experiments.
With `Cc1ccc(-c2nsc(=O)[nH]2)cc1` [Compound 191], the “FhTIM inhibition in words” value is recorded as “non-inhibitor”.

Staying with this assay, now noted: Table 1S, screening of 340 compounds in FhTIM; table head prints no unit, µM per b8/b9.
On to `Clc1ccc(-c2c[se]c(=NN=CC=Cc3ccco3)n2CCN2CCOCC2)cc1` [Compound 1097], for which the IC50 lay within 50 to 100 µM.

Staying with this assay, now noted: Table 1S, screening of 340 compounds in FhTIM; table head prints no unit, µM per b8/b9; read-out: IC50.
For the compound `C=CCNC(=S)NN=CC=Cc1ccc([N+](=O)[O-])s1` [Compound 142], the IC50 is over 100 µM.
With `O=C(CBr)c1csc(=NN=Cc2ccccc2)n1-c1ccccc1` [Compound 775], the IC50 is over 100 µM.
On to `Cc1nnc(C)[n+]([O-])c1C=Cc1ccc(N(C)C)cc1` [Compound 213], for which the IC50 was over 100 µM.
Turning to `C=CCn1c(C(=O)O)csc1=NN=Cc1ccc(S(=O)(=O)O)o1` [Compound 913], the IC50 was over 100 µM.
As for `Cc1c(C=Cc2ccc([N+](=O)[O-])s2)ncn[n+]1[O-]` [Compound 214], the IC50 was over 100 µM.
For `O=C1C(=Cc2ccc([N+](=O)[O-])s2)C(=O)N(C2CCCCC2)S(=O)(=O)N1C1CCCCC1` [Compound 113], the IC50 is over 100 µM.
Consider `NC1=NS(=O)(=O)N(CCC2CCCCC2)c2nc(-c3ccc(F)cc3)[nH]c21` [Compound 706], for which the IC50 was over 100 µM.
As for `CCCCN1C(=O)C(=Cc2ccc([N+](=O)[O-])cc2)C(=O)N(CCCC)S1(=O)=O` [Compound 1165], the IC50 is over 100 µM.
With `O=S(=O)(NC1CCCCC1)NC1CCCCC1` [Compound 118], the IC50 is over 100 µM.
Turning to `COC(=O)NN=Cc1no[n+]([O-])c1C` [Compound 174], the IC50 is over 100 µM.
Still for that read-out and setting: the value for `C(=NN=c1scc(-c2ccccc2)n1-c1ccccc1)c1ccccc1` [Compound 270] was over 100 µM; that for `Clc1ccc(-c2csc(N=CC=Cc3ccco3)n2)cc1` [Compound 910] was over 100 µM; that for `C=CCn1c(C(=O)NN2CCN(CC=Cc3ccccc3)CC2)csc1=NN=CC=Cc1ccco1` [Compound 1100] was over 100 µM.
As for `C=CCn1c(C(=O)N2CCN(C)CC2)csc1=NN=C/C=C/c1ccco1` [Compound 1093], the IC50 was over 100 µM.
As for `O=C(/C=C/c1ccco1)c1ccccc1O` [Compound 881], the IC50 was found to be 100 µM.
Same read-out and setting: the value for `C=CCn1c(C(=O)CN2CCN(c3ccccc3)CC2)csc1=NN=CC=Cc1ccco1` [Compound 1099] was over 100 µM.
For the compound `C(=CC=NN=c1scc(-c2ccccc2)n1-c1ccccc1)C=Cc1ccco1` [Compound 814], the IC50 was over 100 µM.
On the same count and under the same terms, the value for `O=C(O)c1ccc(C=CCN2C(=O)c3ccccc3C2=O)cc1` (mixture of isomers) [Compound 617] was over 100 µM; that for `[O-][n+]1onc2ccc(C=Cc3ccc4nonc4c3)cc21` [Compound 12] was over 100 µM; that for `C(=Cc1ccccc1)CCN1CCN(CCC=Cc2ccccc2)CC1` [Compound 1119] was over 100 µM.
On to `COc1ccc(C=Cc2c(C)[n+]([O-])nc[n+]2[O-])cc1` [Compound 218], for which the IC50 was over 100 µM.
For the compound `C=CCN(C(C)=O)C1=NN(C(C)=O)C(C=Cc2ccco2)S1` (centres unmarked) [Compound 285], the IC50 is over 100 µM.
Regarding `C=CCn1c(C)csc1=NN=CC=Cc1ccc([N+](=O)[O-])s1` [Compound 259], the IC50 was over 100 µM.
Turning to `CN(CC=Cc1ccccc1)CCCCCn1nc(OCc2ccccc2)c2cc([N+](=O)[O-])ccc21` [Compound 507], the IC50 was over 100 µM.
The same measure, in the same setting: the value for `O=[N+]([O-])c1ccc2c(c1)c(O)nn2CCOCCN1CCCCC1` [Compound 459] was over 100 µM.
On the same count and under the same terms, the value for `C=CCN1C(=O)CSC1=NN=CC=Cc1cccs1` [Compound 1138] was over 100 µM; that for `Cc1ccc(-c2nsc(=O)[nH]2)cc1` [Compound 191] was over 100 µM.
As to `O=C1C(=CC=Cc2ccco2)CCC1=CC=Cc1ccco1` [Compound 1223], the IC50 fell in the range of 50 to 100 µM.
For the compound `C=CCNC(=S)NN=Cc1ccc(Cl)cc1` [Compound 261], the IC50 is over 100 µM.
Regarding `C=CCn1c(C(=O)CN2CCN(CC=Cc3ccccc3)CC2)csc1=NN=CC=Cc1ccco1` [Compound 1112], the IC50 was over 100 µM.
Regarding `C=CCn1c(C(=O)CN2CCN(Cc3ccccc3)CC2)csc1=NN=CC=Cc1ccco1` [Compound 1114], the IC50 is over 100 µM.
Regarding `Nc1nc(-c2ccc([N+](=O)[O-])cc2)cs1` [Compound 1098], the IC50 is over 100 µM.
Consider `N#Cc1c2ccccc2[n+]([O-])n1-c1ccc(Cl)cc1` [Compound 480], for which the IC50 was over 100 µM.
For `CC(=NN=c1[nH]c(C(=O)O)cs1)C1CCC2C3CC=C4CC(O)CCC4(C)C3CCC12C` (centres unmarked) [Compound 1258], the IC50 was over 100 µM.
On to `NC1=NS(=O)(=O)N=C(N)C1N` [Compound 723], for which the IC50 is over 100 µM.
Take `O=C(C=CC=Cc1ccccc1)C=CC=Cc1ccccc1` [Compound 797]: the IC50 is over 100 µM.
On the same count and under the same terms, the value for `C=CCn1c(-c2ccccc2)csc1=NN=Cc1ccc2ccccc2c1` [Compound 908] was 50 to 100 µM.
On to `CCOC(=O)C=Cc1ccc([N+](=O)[O-])o1` [Compound 66], for which the IC50 is over 100 µM.
Turning to `O=[N+]([O-])c1ccc2c(c1)c(O)nn2CCOCCBr` [Compound 517], the IC50 was over 100 µM.
`O=C(CBr)C(=O)CSC(=NN=Cc1ccccc1)Nc1ccccc1` [Compound 777]: the 50% inhibitory concentration (IC50) is over 100 µM.
On the same count and under the same terms, the value for `C=CCNC(=S)NN=Cc1ccsc1` [Compound 911] was over 100 µM; that for `C=CCNC(=S)NN=Cc1ccc([N+](=O)[O-])s1` [Compound 136] was over 100 µM; that for `N#Cc1c(-c2ccccc2)no[n+]1[O-]` [Compound 650] was over 100 µM.
Regarding `ON=Cc1ccc(Br)cc1` [Compound 1107], the IC50 is over 100 µM.
`O=C1CSC(=NN=CC=Cc2ccco2)N1c1ccccc1` [Compound 282]: the half-inhibitory concentration (IC50) was over 100 µM.
As for `Nc1nc(-c2ccccc2)cs1` [Compound 810], the IC50 was over 100 µM.
With `O=S(=O)(NCCc1ccccc1)NCCc1ccccc1` [Compound 120], the IC50 was over 100 µM.
As to `NNC(=O)c1ccccn1` [Compound 717], the IC50 was over 100 µM.
`O=C(C=CC=Cc1ccco1)C=CC=Cc1ccco1` [Compound 793]: the 50% inhibitory concentration (IC50) is over 100 µM.
Take `COc1cc(/C=C/C(=O)CC(=O)/C=C/c2cc(OC)c3oc(=O)cc(C)c3c2)ccc1O` [Compound 915]: the IC50 was over 100 µM.
As to `CN(CC=Cc1ccccc1)Cc1ccc2c(c1)=[N+]([O-])C(C)(C)[N+]=2[O-]` [Compound 499], the half-maximal inhibitory concentration (IC50) was over 100 µM.
In the case of `CC(=NNC(N)=O)c1cccc(C(C)=NNC(N)=O)n1` [Compound 701], the IC50 was over 100 µM.
Take `COc1nn(CCCCCN(C)C)c2ccc([N+](=O)[O-])cc12` [Compound 469]: the IC50 was over 100 µM.
As for `CCOC(=O)c1nc2ccc([N+](=O)[O-])cc2n1OC(=O)OCC(C)C` [Compound 545], the IC50 came out at 100 µM.
As for `C=CCNC(=S)NN=CC=Cc1ccc(C)o1` [Compound 263], the IC50 was over 100 µM.
Consider `N#CSc1ccc(C=O)cc1[N+](=O)[O-]` [Compound 670], for which the IC50 was found to be 100 µM.
As to `CCOC(=O)c1nc2ccc([N+](=O)[O-])cc2n1O` [Compound 546], the IC50 was over 100 µM.
Same read-out and setting: the value for `CNc1ccc(C)cc1[N+](=O)[O-]` [Compound 651] was over 100 µM; that for `C=CCNC(=S)NN=Cc1ccc2ccccc2c1` [Compound 296] was over 100 µM.
On to `COc1ccc(CNCC(=O)O)cc1` [Compound 659], for which the IC50 is over 100 µM.
Regarding `CC12CCC(O)CC1=CCC1C2CCC2(C)C(C(=O)C=CC=Cc3ccccc3)CCC12` (centres unmarked) [Compound 1279], the IC50 is over 100 µM.
Still for that read-out and setting: the value for `Cc1ccc(C=CC=NN2CCN(CC=Cc3ccccc3)CC2)o1` [Compound 903] was over 100 µM.
For the compound `O=c1c2cc([N+](=O)[O-])ccc2n2n1CCCCC2` [Compound 637], the half-inhibitory concentration (IC50) is over 100 µM.
In the case of `O=C1CSC(=NN=Cc2ccc([N+](=O)[O-])s2)N1` [Compound 258], the IC50 was over 100 µM.
As to `C=CCn1c(C)csc1=NN=CC=Cc1cccs1` [Compound 1128], the IC50 is over 100 µM.
With `COc1nn(CCOCCN2CCN(CC=Cc3ccccc3)CC2)c2ccc([N+](=O)[O-])cc12` [Compound 198], the IC50 is over 100 µM.
Same read-out and setting: the value for `Cc1c(C(=O)NN=Cc2ccccc2)no[n+]1[O-]` [Compound 824] was over 100 µM.
Consider `NN1CCSCC1` [Compound 616], for which the IC50 was over 100 µM.
Regarding `Cc1ccc(/C=C/C=C/C(=O)/C=C/C=C/c2ccc(C)o2)o1` [Compound 1108], the IC50 is over 100 µM.
Regarding `CC(C=CC(=O)C=CC(C)=Cc1ccco1)=Cc1ccco1` [Compound 809], the IC50 was over 100 µM.
On to `CN1CC(=CC=Cc2ccco2)C(=O)C(=CC=Cc2ccco2)C1` [Compound 1282], for which the IC50 is over 100 µM.
Regarding `O=C1CC(=O)N(Cc2ccccc2)S(=O)(=O)N1Cc1ccccc1` [Compound 358], the IC50 is over 100 µM.
Turning to `C=CCn1c(-c2csc(=NN=Cc3ccccc3)n2-c2ccccc2)csc1=NN=Cc1ccc2ccccc2c1` [Compound 783], the IC50 was over 100 µM.
Same read-out and setting: the value for `N#Cc1c2ccccc2[n+]([O-])n1-c1ccc2ccccc2c1` [Compound 202] was over 100 µM; that for `NNC(=O)Nc1ccc(Cl)cc1` [Compound 397] was over 100 µM.
